Assay results: PMC7035281 (Nature Communications, 2020)

Tests used:
LeuT (LeuTWT) [1] = target: T1, LeuT (LeuTWT) (Aquifex aeolicus, UniProt O67854, W8A); experiment: scintillation proximity saturation binding, purified protein in DDM; X-ray structure […] Å
T1 construct: gene snf; full length, C-terminal thrombin site and 8xHis tag (pET16b), E. coli C41(DE3), purified in DDM; crystal of W8A a dimer in the asymmetric unit, residues 13-511 and 13-507 visible; smFRET variant from pQO18-TEV vector, His-tagged

LeuT (LeuTWT) [2] = target: T2, LeuT (LeuTWT) (Aquifex aeolicus, UniProt O67854); experiment: scintillation proximity saturation binding, purified protein in DDM
T2 construct: gene snf; full length, C-terminal thrombin site and 8xHis tag (pET16b), E. coli C41(DE3), purified in DDM; crystal of W8A a dimer in the asymmetric unit, residues 13-511 and 13-507 visible; smFRET variant from pQO18-TEV vector, His-tagged

## N[C@@H](Cc1ccccc1)C(=O)O [L-Phe]
LeuT (LeuTWT) [1]
  Kd: 0.796 ± 0.139 µM
LeuT (LeuTWT) [2]
  Kd: 0.898 ± 1.13 µM
